US20050170015A1 (priority 2000, published 2005)

Legend:
[1] = tested on: RIF-1 murine fibrosarcoma; assay: RIF-1 tumor growth delay, thiocolchicine alone and with cisplatin, camptothecin or amonafide (Example 6); format: in vivo, C3H mice
Description: Cisplatin for Injection, USP, was obtained as the commercial product from Bristol Laboratories (Platinol®, Lot No. K1F26A). Camptothecin was obtained from Boehinger-Ingelheim Lot 142088. Amonafide dihydrochloride was prepared in house, in a solution of 20 mg/ml. 0.9% Sodium Chloride for Injection, USP (saline) was manufactured by Abbott Laboratories (Lot No. 55-199-DK). Sterile Water for Injection, USP (WFI) was manufactured by Lyphomed, Inc. (Lot No. 390849). DMSO was obtained from Sigma (St. Louis, Mo.). DMF (dimethylformamide) was obtained from Sigma (St. Louis, Mo.). PEG400 was obtained from Sigma (St. Louis, Mo.).
For preparation of cisplatin formulation, the contents of a 10-mg vial of lyophilized CDDP (Cisplatin for Injection) was resuspended with 10 mL WFI to produce a 1 mg/mL CDDP suspension.
Camptothecin was prepared in a solution of DMSO at 0.75 mg/ml.
This was further diluted using saline to […].
Amonafide was diluted to 15 mg/ml with saline.
Food and water were available ad libitum.
Tumors: The RIF-1 murine fibrosarcoma cell line was maintained in in vitro culture (Wayrnouth medium supplemented with 20% fetal bovine serum) at 37° C. in a humidified 5% CO2 incubator. Log-phase RIF-1 cells were trypsinized and harvested from cell culture flasks to yield a concentration of 4×10^6 cells/mL, then injected intradermally in a volume of 50 μL (equivalent to 2×10^5 cells per injection) into both flanks of each mouse. Nine days later, when tumors reached approximately 100 mm^3 in size, the animals were randomized to different treatment groups.
Evaluation of Tumor Growth Delay: Tumors were measured three times weekly for up to 22 days with Vernier calipers. Tumor volume (cubic millimeters, mm^3) was calculated according to the formula: [formula] in which D1-3 are perpendicular diameters measured in millimeters (mm). Tumor volume quadrupling time (TVQT), defined as the time required for a tumor to grow to four times (4×) its initial volume (at the time of treatment), was used as a study endpoint.
The TVQT was determined for each treatment group and expressed in days as the mean±standard error (SE).

[2] = Ex# E048; oral 40 mg/kg; 0/8 tumors
[3] = Ex# E031, IP 4 mg/kg, 4/8 tumors
[4] = Ex# E048, oral 20 mg/kg, 12/16 tumors

COc1cc2c(c(OC)c1OC)-c1ccc(SC)c(=O)cc1[C@@H](NC(C)=O)CC2 [Thiocolchicine, (S)-N-[5,6,7,9-Tetrahydro-1,2,3-trimethoxy-10-(methylthio)-9-oxobenzo[a]heptalen-7-yl]-acetamide]
Days to 4× (ave ± SE) ([1]; Ex# E031, IP 1 mg/kg): 8.7 ± 0.4 days | Days to 4× Median ([1]; Ex# E031, IP 1 mg/kg): 8.7 days | Delay ([1]; Ex# E031, IP 1 mg/kg): 2.08 days | T/C ([1]; Ex# E031, IP 1 mg/kg): 1.3 | Days to 4× (ave ± SE) ([1]; Ex# E031, IP 2 mg/kg): 8.9 ± 0.9 days | Days to 4× Median ([1]; Ex# E031, IP 2 mg/kg): 8.1 days | Delay ([1]; Ex# E031, IP 2 mg/kg): 1.48 days | T/C ([1]; Ex# E031, IP 2 mg/kg): 1.3 | Days to 4× (ave ± SE) [1, 3]: 13.2 ± 1.2 days | Days to 4× Median [1, 3]: 13.4 days | Delay [1, 3]: 6.77 days | T/C [1, 3]: 2.0 | Days to 4× (ave ± SE) ([1]; Ex# E047, IP 1 mg/kg): 10.88 ± 1.43 days | Days to 4× Median ([1]; Ex# E047, IP 1 mg/kg): 10.13 days | Delay ([1]; Ex# E047, IP 1 mg/kg): 2.57 days | T/C ([1]; Ex# E047, IP 1 mg/kg): 1.4 | Days to 4× (ave ± SE) ([1]; Ex# E047, IP 1 × 2 mg/kg): 12.49 ± 0.52 days | Days to 4× Median ([1]; Ex# E047, IP 1 × 2 mg/kg): 13.16 days | Delay ([1]; Ex# E047, IP 1 × 2 mg/kg): 5.60 days | T/C ([1]; Ex# E047, IP 1 × 2 mg/kg): 1.7 | Days to 4× (ave ± SE) ([1]; Ex# E047, Oral 10 mg/kg): 11.78 ± 2.08 days | Days to 4× Median ([1]; Ex# E047, Oral 10 mg/kg): 9.11 days | Delay ([1]; Ex# E047, Oral 10 mg/kg): 1.56 days | T/C ([1]; Ex# E047, Oral 10 mg/kg): 1.6 | Days to 4× (ave ± SE) ([1]; Ex# E047, Oral 10 × 2 mg/kg): 13.65 ± 1.60 days | Days to 4× Median ([1]; Ex# E047, Oral 10 × 2 mg/kg): 13.29 days | Delay ([1]; Ex# E047, Oral 10 × 2 mg/kg): 5.73 days | T/C ([1]; Ex# E047, Oral 10 × 2 mg/kg): 1.8 | Days to 4× (ave ± SE) ([1]; Ex# E048, oral 10 mg/kg): 10.14 ± 1.15 days | Days to 4× Median ([1]; Ex# E048, oral 10 mg/kg): 9.01 days | Delay ([1]; Ex# E048, oral 10 mg/kg): 2.77 days | T/C ([1]; Ex# E048, oral 10 mg/kg): 1.6 | Days to 4× (ave ± SE) [1, 4]: 12.34 ± 0.75 days | Days to 4× Median [1, 4]: 11.52 days | Delay [1, 4]: 5.28 days | T/C [1, 4]: 1.9 | Mortality (printed in the Days to 4× column) [2]: All Died
